# Measured values taken from patent US11578061B2, “Inhibitors of LRRK2 kinase” (Halia Therapeutics, Inc., priority 2021, dated 2023).
# Biological target: recombinant human LRRK2 (catalytic domain only [amino acids 970-2527], GST-tagged) (Homo sapiens (Human), UniProt Q5S007)
# Assay: LRRK2 Enzymatic Assay
# Assay type: biochemical
# Details: LRRKtide substrate, [32P]-ATP
# Outline: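 GST-tagged catalytic domain (aa 970-2527) at 30 nM with 20 μM LRRKtide in HEPES pH 7.5/MgCl2 buffer, 1% DMSO; compounds (10 μM to 0.5 nM) preincubated 20 min, then [32P]-ATP added for 2 h at room temperature. P81 phosphocellulose capture; activity as % of vehicle, IC50 by curve fit.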
# Sequence of recombinant human LRRK2 (catalytic domain only [amino acids 970-2527], GST-tagged) (Q5S007 970-2527): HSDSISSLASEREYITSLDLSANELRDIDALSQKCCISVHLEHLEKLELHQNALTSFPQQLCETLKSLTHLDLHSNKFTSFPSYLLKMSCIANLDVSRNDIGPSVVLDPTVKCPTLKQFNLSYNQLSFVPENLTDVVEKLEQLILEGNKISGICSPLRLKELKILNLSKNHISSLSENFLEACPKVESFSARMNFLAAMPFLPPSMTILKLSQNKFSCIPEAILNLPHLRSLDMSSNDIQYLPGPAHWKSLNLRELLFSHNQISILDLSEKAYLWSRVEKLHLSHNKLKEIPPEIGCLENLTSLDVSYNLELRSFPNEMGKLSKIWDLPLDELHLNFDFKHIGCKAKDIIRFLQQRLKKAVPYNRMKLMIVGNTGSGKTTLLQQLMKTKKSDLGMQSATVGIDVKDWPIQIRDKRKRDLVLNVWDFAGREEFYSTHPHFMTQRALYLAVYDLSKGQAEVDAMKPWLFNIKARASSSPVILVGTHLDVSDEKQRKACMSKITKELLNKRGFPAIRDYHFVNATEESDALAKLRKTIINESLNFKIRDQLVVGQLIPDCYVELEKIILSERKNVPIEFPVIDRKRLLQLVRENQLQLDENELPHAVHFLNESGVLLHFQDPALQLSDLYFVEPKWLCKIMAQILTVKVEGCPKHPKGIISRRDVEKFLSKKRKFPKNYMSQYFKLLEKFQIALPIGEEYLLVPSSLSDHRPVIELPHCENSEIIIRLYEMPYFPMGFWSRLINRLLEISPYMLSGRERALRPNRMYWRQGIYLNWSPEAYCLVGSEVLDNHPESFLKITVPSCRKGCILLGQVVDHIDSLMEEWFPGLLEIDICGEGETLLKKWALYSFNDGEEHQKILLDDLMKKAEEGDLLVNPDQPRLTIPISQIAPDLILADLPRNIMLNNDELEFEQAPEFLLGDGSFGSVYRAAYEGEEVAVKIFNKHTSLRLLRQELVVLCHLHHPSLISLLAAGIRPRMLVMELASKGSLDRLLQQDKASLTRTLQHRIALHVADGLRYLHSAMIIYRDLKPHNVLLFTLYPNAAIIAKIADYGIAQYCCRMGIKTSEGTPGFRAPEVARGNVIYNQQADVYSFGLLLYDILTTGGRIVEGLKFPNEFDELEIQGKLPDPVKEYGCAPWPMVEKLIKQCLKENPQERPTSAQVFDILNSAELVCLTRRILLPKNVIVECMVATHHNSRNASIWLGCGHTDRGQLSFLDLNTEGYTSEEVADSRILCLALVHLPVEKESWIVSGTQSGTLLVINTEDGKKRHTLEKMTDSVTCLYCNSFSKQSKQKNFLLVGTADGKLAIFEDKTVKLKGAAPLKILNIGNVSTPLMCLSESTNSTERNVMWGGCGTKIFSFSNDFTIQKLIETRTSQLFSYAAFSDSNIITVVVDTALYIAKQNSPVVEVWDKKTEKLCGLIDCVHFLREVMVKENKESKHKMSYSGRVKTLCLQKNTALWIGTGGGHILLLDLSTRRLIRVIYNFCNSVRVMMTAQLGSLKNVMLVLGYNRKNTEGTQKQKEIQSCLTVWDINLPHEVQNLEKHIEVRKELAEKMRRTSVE
row,IC50,SMILES
1,50 to 200 nM,"O=C(N1CCC(COc2nc(Nc3ccc(N4CCOCC4)cc3)ncc2Cl)CC1)C(F)(F)F [Example 112, 1-(4-(((5-chloro-2-((4-morpholino-phenyl)amino)pyrimidin-4-yl)oxy)methyl)piperidin-1-yl)-2,2,2-trifluoro-ethan-1-one]"
2,> 400 nM,"FC(F)(F)CN1CCC(COc2nc(Nc3ccc(N4CCOCC4)cc3)ncc2Cl)CC1 [Example 114, 5-chloro-N-(4-morpholino-phenyl)-4-((1-(2,2,2-trifluoroethyl)piperidin-4-yl)methoxy) pyrimidin-2-amine]"
3,200 to 400 nM,"CC(N[C@H]1CC[C@H](COc2nc(Nc3ccc(N4CCOCC4)cc3)ncc2F)CC1)C(F)(F)F (stereo partly drawn) [Example 116, 5-fluoro-N-(4-morpholino-phenyl)-4-(((1R,4R)-4-((1,1,1-trifluoro-propan-2-yl)amino)cyclohexyl)methoxy) pyrimidin-2-amine]"
4,200 to 400 nM,"OC1CCC(COc2ccnc(Nc3ccc(N4CCOCC4)cc3)n2)CC1 (stereo not shown) [Example 117, 4-(((2-((4-morpholinophenyl)amino)pyrimidin-4-yl)oxy)methyl)cyclohexanol]"
5,50 to 200 nM,"C[C@@H]1CN(c2ccc(Nc3nccc(OCC4CCC(O)CC4)n3)cc2)C[C@H](C)O1 (stereo partly drawn) [Example 118, 4-(((2-((4-((2S,6R)-2,6-dimethylmorpholino)phenyl)amino)pyrimidin-4-yl)oxy)methyl)cyclohexan-1-ol]"
6,200 to 400 nM,"Cc1nn(C(C)(C)C#N)cc1Nc1nccc(OCC2CCC(O)CC2)n1 (stereo not shown) [Example 119, 2-(4-((4-((4-hydroxycyclohexyl)methoxy)pyrimidin-2-yl)amino)-3-methyl-1H-pyrazol-1-yl)-2-methylpropanenitrile]"
7,< 50 nM,"C[C@@H]1CN(c2ccc(Nc3ncc(Cl)c(OCC4CCC(O)CC4)n3)cc2)C[C@H](C)O1 (stereo partly drawn) [Example 120, 4-(((5-chloro-2-((4-((2S,6R)-2,6-dimethylmorpholino)phenyl)amino)pyrimidin-4-yl)oxy)methyl)cyclohexan-1-ol]"
8,50 to 200 nM,"OC1CCC(COc2nc(Nc3ccc(N4CCOCC4)cc3)ncc2F)CC1 (stereo not shown) [Example 123, 4-(((5-fluoro-2-((4-morpholinophenyl)amino)pyrimidin-4-yl)oxy)methyl)cyclohexan-1-ol]"
9,< 50 nM,"C[C@@H]1CN(c2ccc(Nc3ncc(F)c(OCC4CCC(O)CC4)n3)cc2)C[C@H](C)O1 (stereo partly drawn) [Example 124, 4-(((2-((4-((2S,6R)-2,6-dimethylmorpholino)phenyl)amino)-5-fluoropyrimidin-4-yl)oxy)methyl)cyclohexan-1-ol]"
10,< 50 nM,"Cc1cnc(Nc2ccc(N3C[C@@H](C)O[C@@H](C)C3)cc2)nc1OCC1CCC(O)CC1 (stereo partly drawn) [Example 128, 4-(((2-((4-((2S,6R)-2,6-dimethylmorpholino)phenyl)amino)-5-methylpyrimidin-4-yl)oxy)methyl)cyclohexan-1-ol]"
11,< 50 nM,"C[C@@H]1CN(c2ccc(Nc3ncc(C4CC4)c(OCC4CCC(O)CC4)n3)cc2)C[C@H](C)O1 (stereo partly drawn) [Example 129, 4-(((5-cyclopropyl-2-((4-((2S,6R)-2,6-dimethylmorpholino)phenyl)amino)pyrimidin-4-yl)oxy)methyl)cyclohexan-1-ol]"
12,> 400 nM,"CCN1CCN(c2ccc(Nc3nccc(OCC4CCC(O)CC4)n3)nc2)CC1 (stereo not shown) [Example 133, 4-(((2-((5-(4-ethylpiperazin-1-yl)pyridin-2-yl)amino)pyrimidin-4-yl)oxy)methyl)cyclohexan-1-ol]"
13,< 50 nM,"OC1CC2(C1)CC(COc1nc(Nc3ccc(N4CCOCC4)cc3)ncc1F)C2 (stereo not shown) [Example 134, 6-(((5-fluoro-2-((4-morpholinophenyl)amino)pyrimidin-4-yl)oxy)methyl)spiro[3.3]heptan-2-ol]"
14,50 to 200 nM,"CC(C)(O)[C@H]1CC[C@H](COc2ccnc(Nc3ccc(N4CCOCC4)cc3)n2)CC1 [Example 136, 2-((1R,4R)-4-(((2-((4-morpholinophenyl)amino)pyrimidin-4-yl)oxy)methyl)cyclohexyl)propan-2-ol]"
15,< 50 nM,"CC(C)(O)[C@H]1CC[C@H](COc2nc(Nc3ccc(N4CCOCC4)cc3)ncc2Cl)CC1 [Example 137, 2-((1R,4R)-4-(((5-chloro-2-((4-morpholinophenyl)amino)pyrimidin-4-yl)oxy)methyl)cyclohexyl)propan-2-ol]"
16,50 to 200 nM,"OCC1CCC(COc2ccnc(Nc3ccc(N4CCOCC4)cc3)n2)CC1 (stereo not shown) [Example 139, (4-(((2-((4-morpholinophenyl)amino)pyrimidin-4-yl)oxy)methyl)cyclohexyl)methanol22]"
17,> 400 nM,"OC12CCC(COc3ccnc(Nc4ccc(N5CCOCC5)cc4)n3)(CC1)CC2 [Example 140, 4-(((2-((4-morpholinophenyl)amino)pyrimidin-4-yl)oxy)methyl)bicyclo[2.2.2]octan-1-ol]"
18,50 to 200 nM,"C[C@@H]1CN(c2ccc(Nc3nccc(OCC4CCC(CO)CC4)n3)cc2)C[C@H](C)O1 (stereo partly drawn) [Example 141, (4-(((2-((4-((2R,6S)-2,6-dimethylmorpholino)phenyl)amino)pyrimidin-4-yl)oxy)methyl)cyclohexyl)methanol]"
19,> 400 nM,"C[C@@H]1CN(c2ccc(Nc3nccc(OCC45CCC(O)(CC4)CC5)n3)cc2)C[C@H](C)O1 [Example 142, 4-(((2-((4-((2S,6R)-2,6-dimethylmorpholino)phenyl)amino)pyrimidin-4-yl)oxy)methyl)bicyclo[2.2.2]octan-1-ol]"
20,50 to 200 nM,"CC(C)(O)[C@H]1CC[C@H](COc2nc(Nc3ccc(N4CCOCC4)cc3)ncc2F)CC1 [Example 144, 2-((1R,4R)-4-(((5-fluoro-2-((4-morpholinophenyl)amino)pyrimidin-4-yl)oxy)methyl)cyclohexyl)propan-2-ol]"

# The next lines start with the compound.
row,SMILES,IC50
1,"Cc1nn(C(C)(C)C#N)cc1Nc1ncc(Cl)c(OCC2CCN(C(=O)C(F)F)CC2)n1 [Example 111, 2-(4-((5-chloro-4-((1-(2,2-difluoro-acetyl)piperidin-4-yl)methoxy)pyrimidin-2-yl)amino)-3-methyl-1H-pyrazol-1-yl)-2-methyl-propanenitrile]",< 50 nM
2,"FC(F)CN1CCC(COc2nc(Nc3ccc(N4CCOCC4)cc3)ncc2Cl)CC1 [Example 113, 5-chloro-4-((1-(2,2-difluoroethyl)piperidin-4-yl)methoxy)-N-(4-morpholino-phenyl) pyrimidin-2-amine]",< 50 nM
3,"Cc1nn(C(C)(C)C#N)cc1Nc1ncc(Cl)c(OCC2CCC(O)CC2)n1 (stereo not shown) [Example 121, 2-(4-((5-chloro-4-((4-hydroxycyclohexyl)methoxy)pyrimidin-2-yl)amino)-3-methyl-1H-pyrazol-1-yl)-2-methylpropanenitrile]",< 50 nM
4,"Cc1nn(C2CC(C#N)C2)cc1Nc1ncc(Cl)c(OCC2CCC(O)CC2)n1 (stereo not shown) [Example 122, 3-(4-((5-chloro-4-((4-hydroxycyclohexyl)methoxy)pyrimidin-2-yl)amino)-3-methyl-1H-pyrazol-1-yl)cyclobutane-1-carbonitrile]",< 50 nM
5,"Cc1nn(C(C)(C)C#N)cc1Nc1ncc(F)c(OC[C@H]2CC[C@H](O)CC2)n1 [Example 125, 2-(4-((5-fluoro-4-(((1R,4R)-4-hydroxycyclohexyl)methoxy)pyrimidin-2-yl)amino)-3-methyl-1H-pyrazol-1-yl)-2-methylpropanenitrile]",< 50 nM
6,"Cc1nn(C(C)(C)C#N)cc1Nc1ncc(F)c(OC[C@H]2CC[C@@H](O)CC2)n1 [Example 126, 2-(4-((5-fluoro-4-(((1S,4S)-4-hydroxycyclohexyl)methoxy)pyrimidin-2-yl)amino)-3-methyl-1H-pyrazol-1-yl)-2-methylpropanenitrile]",< 50 nM
7,"Cc1nn(C(C)(C)C#N)cc1Nc1ncc(F)c(OCC2CCC(O)C2)n1 (stereo not shown) [Example 127, 2-(4-((5-fluoro-4-((3-hydroxycyclopentyl)methoxy)pyrimidin-2-yl)amino)-3-methyl-1H-pyrazol-1-yl)-2-methylpropanenitrile]",< 50 nM
8,"Cc1nn(C(C)(C)C#N)cc1Nc1nccc(OCC2CCC(O)C2)n1 (stereo not shown) [Example 130, 2-(4-((4-((3-hydroxycyclopentyl)methoxy)pyrimidin-2-yl)amino)-3-methyl-1H-pyrazol-1-yl)-2-methylpropanenitrile]",50 to 200 nM
9,"CCN1CCN(Cc2ccc(Nc3ncc(Cl)c(OCC4CCC(O)CC4)n3)nc2)CC1 (stereo not shown) [Example 131, 4-(((5-chloro-2-((5-((4-ethylpiperazin-1-yl)methyl)pyridin-2-yl)amino)pyrimidin-4-yl)oxy)methyl)cyclohexan-1-ol]",> 400 nM
10,"CCN1CCN(c2ccc(Nc3ncc(Cl)c(OCC4CCC(O)CC4)n3)nc2)CC1 (stereo not shown) [Example 132, 4-(((5-chloro-2-((5-(4-ethylpiperazin-1-yl)pyridin-2-yl)amino)pyrimidin-4-yl)oxy)methyl)cyclohexan-1-ol]",50 to 200 nM
11,"Cc1nn(C(C)(C)C#N)cc1Nc1ncc(Cl)c(OCC2CCC(C)(O)CC2)n1 (stereo not shown) [Example 135, 2-(4-((5-chloro-4-((4-hydroxy-4-methylcyclohexyl)methoxy)pyrimidin-2-yl)amino)-3-methyl-1H-pyrazol-1-yl)-2-methylpropanenitrile]",< 50 nM
12,"Cc1nn(C(C)(C)C#N)cc1Nc1ncc(Cl)c(OC[C@H]2CC[C@H](C(C)(C)O)CC2)n1 [Example 138, 2-(4-((5-chloro-4-(((1R,4R)-4-(2-hydroxypropan-2-yl)cyclohexyl)methoxy)pyrimidin-2-yl)amino)-3-methyl-1H-pyrazol-1-yl)-2-methylpropanenitrile]",< 50 nM
13,"C[C@@H]1CN(c2ccc(Nc3ncc(F)c(OCC45CCC(O)(CC4)CC5)n3)cc2)C[C@H](C)O1 [Example 143, 4-(((2-((4-((2S,6R)-2,6-dimethylmorpholino)phenyl)amino)-5-fluoropyrimidin-4-yl)oxy)methyl)bicyclo[2.2.2]octan-1-ol]",50 to 200 nM
14,"Cc1nn(C(C)(C)C#N)cc1Nc1ncc(Cl)c(OCC2CCC(NC3CC(F)(F)C3)CC2)n1 (stereo not shown) [Example 145, 2-(4-((5-chloro-4-((4-((3,3-difluorocyclobutyl)amino)cyclohexyl)methoxy)pyrimidin-2-yl)amino)-3-methyl-1H-pyrazol-1-yl)-2-methylpropanenitrile]",< 50 nM
